# Test results taken from patent publication US20220098620A1, “NOVEL NUCLEIC ACID MODIFIERS” (THE BROAD INSTITUTE, INC., priority 2019, published 2022).
# System: GAPDH locus
# Test: HiBiT sequence knock-in assay (NanoLuc luciferase complementation)
# Type: cell-based
# Text: FIG. 39A-39E—Schematic of the HiBiT assay to check the HDR-mediated knock-in of the 33-nt DNA fragment. (FIG. 39A) General gRNA and ssODN design strategy for HDR-based HiBiT sequence knock-in right before the stop codon of the gene of interest. (FIG. 39B) The knock-in results in the expression of a fusion protein having a C-terminal HiBiT tag, which is a small fragment of the NanoLuc luciferase. When an excess amount of the other fragment of NanoLuc (LgBiT) is supplied, a fully functional NanoLuc is reconstituted. The resulting luminescence signal is proportional to the HDR efficiency. […]
# Applicants then designed an ssODN that would insert a 33-nt DNA fragment (HiBiT sequence) at a gene of interest by HDR pathway (FIG. 39A). […] When complemented by LgBiT, the remainder of NanoLuc, the full-length luciferase is reconstituted to generate a luminescence signal proportional to the degree of ssODN incorporation, providing an easy readout for measuring the level of HDR (FIG. 39B). Applicants chose GAPDH as the first target gene (FIG. 39C) owing to its abundant expression in many cell types, which should allow for the reliable detection of the luminescence signal. […] Using the negative control ssODN without the complementary sequence, Applicants determined if appending the DNA adaptor to the cysteine affected Cas9 activity using the HiBiT insertion assay (FIG. 13b). […]
row,HDR enhancement by NHEJ pathway inhibitors in the HiBiT assay,SMILES
1,enhanced HDR enhancement,O=c1cc(N2CCOCC2)oc2c(-c3cccc4c3sc3ccccc34)cccc12 [KU-57788]
2,enhanced HDR enhancement,CCN1CCN(CC(=O)Nc2ccc(-c3cccc4c(=O)cc(N5CCOCC5)oc34)c3sc4ccccc4c23)CC1 [KU-0060648]
